From patent US20250025490A1, “INDUCTION OF TRAINED IMMUNITY FOR THE TREATMENT OF HYPERPROLIFERATIVE DISORDERS” (priority 2021, published 2025)

Legend:
Assay type in all cases: cell-based, mice
peritoneal macrophages [1] = assay: In vitro training and re-stimulation of peritoneal macrophages (Example 2), TNF-α ELISA
Description: Isolation and culture of peritoneal macrophages. Mice were euthanized with CO2 inhalation and injected i.p. with 5 ml of sterile cold, complete DMEM medium (Sigma Aldrich) followed by gentle massage of the peritoneum. The peritoneal fluid was then collected, centrifuged at 1600 rpm for 5 min. The cell pellet was washed, counted, and plated at appropriate numbers in complete DMEM. The cells were incubated for 2-4 hours at 37° C. and 5% CO2 to allow peritoneal macrophages attached to the plates. The floating cells were aspirated and plates were gently washed with sterile pre-warmed medium and then added with fresh complete DMEM. For comparison studies between different mouse strains, peritoneal cells were stained with viability dye and anti-F4/80 antibodies (Biolegend) and F4/80^+ macrophages were sorted by FACS Aria III (BD Bioscience).
In vitro training and re-stimulation of peritoneal macrophages. Peritoneal macrophages were treated with 25 μg/ml of WGP or polystyrene beads (3 μm, Sigma-Aldrich) and incubated for 24 h at 37°° C. with 5% CO2. Macrophages were then washed with pre-warmed complete DMEM at least twice to remove excess WGP or polystyrene beads, added with fresh complete DMEM and incubated 6 days. On day 7, macrophages were re-stimulated with different stimuli such as LPS (10 ng/ml) (Sigma), tumor cells, tumor cell culture supernatants (40%) or rMIF (100 ng/ml) (kindly provided by Dr. Robert Mitchell) for 24 h. The culture supernatants were harvested and assayed for TNF-α by ELISA. For cell culture supernatants, tumor cell lines including LLC, B16F10, and EL4, and control cell line MLE-12 were used.
These cell lines were cultured (1 million/4 ml complete DMEM) in a 6-well plate and incubated for 72 h. The supernatants were harvested and stored at −80° C. in aliquots.
ELISA for TNF-α and MIF. TNF-α in the culture supernatants was measured using TNF-α ELISA kit (Biolegend) and MIF levels in the culture supernatants were quantified using mouse MIF ELISAkit (R&D Systems) per the manufacturer's instruction.
In vitro training with S1P. Peritoneal macrophages were stimulated with 200 nM or 300 nM of S1P for 24 h at 37° C. and 5% CO2. The macrophages were then washed and allowed for resting. On day 7, the macrophages were stimulated with LPS (10 ng/ml) or LLC culture supernatant (40%) for 24 h and the supernatants were collected for the quantification of TNF-α using ELISA. For another set of in vitro-training experiment, macrophages were trained with S1P in the presence of Mdivi-1 (10 μM) during S1P training and throughout the resting period. Cells were restimulated with LPS and the supernatants were collected to determine TNF-α levels by ELISA.
[…] The inhibitors were further added to the macrophage cultures and incubated at 37° C. and 5% CO2 for 6 more days. On day 7, the macrophages were washed once with pre-warmed complete DMEM and added LPS (10 ng/ml) or LLC culture supernatant (40%) for re-stimulation.

KPC tumor cells = assay: Cytotoxicity assay of pancreatic CD11b+ cells against KPCLuc+ cells; conditions: NAC 1 mM
Description: The pancreas from WGP and PBS treated mice were harvested and the CD11b^+ populations were isolated using magnetic CD11b^+ MicroBeads (Miltenyi Biotec) and an autoMACS Pro Separator (Miltenyi Biotec). Purified CD11b^+ cells were then washed and counted, and these were plated at a ratio of 1:20 tumor:effector cells in a 96 well plate. All experimental samples were run in triplicate. After plating the CD11b^+ cells, the ROS inhibitor […] (NAC) (Sigma Aldrich) was added to one set of PBS and WGP derived cells at 1 mM for 1 hour before the addition of 5000 luciferase expressing KPC^+ pancreatic tumor cells to all wells. After 24 hours, of coculture, the plates were centrifuged and 20 μL of the supernatant was mixed with 100 μL of the Luciferase Assay Reagent (Promega). Luciferase activity measured in the supernatant correlated with tumor cells that had been killed by the effector cells and was measured using a luminometer (Femtomaster FB 12, Zylux Corporation). The spontaneous luciferase signal from plated tumor cells was subtracted from the measurement of the supernatant. Luciferase values are represented as Relative Light Units (RLUs).

peritoneal macrophages [2] = assay: Mitochondrial ROS quantitation (MitoSox Red); conditions: peritoneal macrophages, 24 h
Description: (§1) Mitochondrial ROS quantitation. Peritoneal macrophages were treated with WGP or S1P in the presence or absence of Mdivi-1 and incubated at 37° C. with 5% CO2 for 24 h. The cells were then harvested, washed with PBS and pelleted by centrifugation at 1600 rpm for 5 min at room temperature. The pellets were then stained with MitoSOX Red dye (5 μM) (Invitrogen) at 37° C. for 15 min. The cells were washed with pre-warmed HBSS followed by another wash with PBS at room temperature. The cells were then stained with viability dye and anti-F4/80 and then acquired by flow cytometry. Flow cytometry for p-Drp-1. Peritoneal macrophages were treated with WGP (25 μg/ml) or S1P (1 μM) and incubated at 37° C. with 5% CO2 for 3-4 h. Following the completion of incubation, the cells were quickly washed with cold PBS to stop the activation. The cells were harvested and washed with PBS. The cells were then fixed with 4% formaldehyde for 15 min at room temperature, washed with PBS and permeabilized using ice-cold 100% methanol on ice for a minimum of 10 min. The cells were then stained with primary antibody (p-Drp1) (Cell Signaling) for 1 hour at room temperature followed by secondary antibody (Anti-rabbit IgG) (Biolegend) for 30 min at room temperature as instructed in the Cell Signaling phospho-stain protocol and analyzed using flow cytometry.

Drp-1 = assay: p-Drp-1 / Drp-1 by flow cytometry and Western blot
Description: as §1
Western blot analysis for total Drp-1 and p-Drp-1. […]

Which “effect on WGP-mediated trained response (TNF-α)” value (peritoneal macrophages [1]; Fumonisin-B1 25 μM, LPS and LLC supernatants) does the source give for CCCC[C@@H](C)[C@@H](OC(=O)C[C@@H](CC(=O)O)C(=O)O)[C@H](C[C@@H](C)C[C@H](O)CCCC[C@@H](O)C[C@H](O)[C@H](C)N)OC(=O)C[C@@H](CC(=O)O)C(=O)O [Fumonisin-B1] here?
Its value is “abrogated WGP-mediated trained response”.

For CC(=O)N[C@@H](CS)C(=O)O [NAC, N-Acetyl Cysteine], which “effect of ROS inhibition on WGP-elicited cytotoxicity” value (KPC tumor cells) is on record?
The value was “completely abrogated the WGP-elicited increase in cytotoxicity”.

With CCCCCCCCCCCCC/C=C/[C@@H](O)[C@@H](N)COP(=O)(O)O [S1P, sphingosine-1-phosphate] as the compound, how does the “TNF-α production of macrophages trained with S1P” value (peritoneal macrophages [1]; S1P 200 nM or 300 nM, LPS or LLC supernatant restimulation) read?
Its value is “showed significantly higher TNF-α production compared to the untrained controls”.

And the mtROS production (peritoneal macrophages [2])?
Its mtROS production is “exhibited an enhanced mtROS production”.

And the “phosphorylation of Drp-1” value (Drp-1; peritoneal macrophages)?
Its value is “significantly increased p-Drp-1 in macrophages”.

What does the source list for O=C(NCc1ccncc1)C12CC3CC(C1)CC(c1ccc(Cl)cc1)(C3)C2 [Sphk2i]?
effect on WGP trained responses (TNF-α) (peritoneal macrophages [1]; Sphk2i 25 μM or 50 μM, LPS and LLC supernatant): completely attenuated the trained responses; effect on p-Drp-1 in WGP-treated macrophages (Drp-1; Sphk2i 50 μM, 3 h and 6 h): decreased the level of p-Drp-1 but not total Drp-1
